{"source": "patent US10028930B2", "about": "“Compositions capable of enhancing thermogenesis and uses thereof” (Specialty Nutrition Group, Inc., priority 2013, dated 2018)", "origin": "cited, not measured here", "key": {"[1]": {"details": "NAFLD subjects, compared to placebo"}, "[2]": {"tested_on": "uncoupling proteins (UCP-1, UCP-2, UCP-3)", "details": "rodents, brown and white adipose tissue"}}}
{"substance": "Fucoxanthin", "values": [{"measurement": "resting energy expenditure (REE)", "setting": "[1]", "result": "significantly increased"}, {"measurement": "expression of uncoupling proteins (UCP-1, UCP-2, UCP-3)", "setting": "[2]", "result": "inducing the expression"}]}
